Columns and labels:
[1] = biological target: T1, hPRB (Homo sapiens, UniProt P06401); assay: PR transactivation assay (GRE2-Luc) in HEK293T cells transiently expressing hPRB; assay type: cell-based; parameters: expressed in transfected cells; host or cells: HEK 293T; conditions: APRn 1 μM
T1 sequence (P06401 1-933): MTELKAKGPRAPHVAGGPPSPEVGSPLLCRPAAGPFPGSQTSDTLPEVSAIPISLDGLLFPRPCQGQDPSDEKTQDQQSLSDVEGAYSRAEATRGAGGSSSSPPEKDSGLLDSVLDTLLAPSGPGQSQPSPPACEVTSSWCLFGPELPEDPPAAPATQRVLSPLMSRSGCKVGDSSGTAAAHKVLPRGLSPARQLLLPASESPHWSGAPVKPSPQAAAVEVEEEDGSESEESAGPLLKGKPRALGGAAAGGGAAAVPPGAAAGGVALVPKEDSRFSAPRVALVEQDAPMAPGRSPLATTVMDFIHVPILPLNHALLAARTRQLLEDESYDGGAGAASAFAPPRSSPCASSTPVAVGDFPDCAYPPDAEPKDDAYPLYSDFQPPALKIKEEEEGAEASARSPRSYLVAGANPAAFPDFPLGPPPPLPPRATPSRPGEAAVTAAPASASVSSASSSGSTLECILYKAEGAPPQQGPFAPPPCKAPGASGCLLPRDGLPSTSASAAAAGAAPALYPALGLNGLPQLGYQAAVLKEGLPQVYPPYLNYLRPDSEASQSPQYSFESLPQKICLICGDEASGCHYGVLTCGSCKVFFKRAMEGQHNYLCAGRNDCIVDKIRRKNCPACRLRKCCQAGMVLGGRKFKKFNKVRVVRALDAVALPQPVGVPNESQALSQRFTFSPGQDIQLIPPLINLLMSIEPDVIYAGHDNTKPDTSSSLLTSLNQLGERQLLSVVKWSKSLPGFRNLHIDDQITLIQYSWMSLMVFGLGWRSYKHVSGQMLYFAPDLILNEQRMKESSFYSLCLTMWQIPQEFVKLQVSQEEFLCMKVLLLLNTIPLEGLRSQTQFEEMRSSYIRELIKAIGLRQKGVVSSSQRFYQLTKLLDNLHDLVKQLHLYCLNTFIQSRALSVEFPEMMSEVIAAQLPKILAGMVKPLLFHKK
Experimental: PR Transactivation Assays in HEK 293T.
HEK 293T cells were routinely cultured in a high-glucose DMEM medium (Invitrogene, Cergy Pontoise, France), 20 mM HEPES, 2 mM glutamine, 1× non essential amino acids, 100 U/mL penicillin and 100 μg/mL streptomycin supplemented with 10% foetal calf serum (FCS) in a humidified atmosphere at 37° C. and with 5% CO2. One day before transfection, the cells were seeded at 3×10^6 cells/[…] diameter culture Petri dish and cultured overnight in the same medium. Six hours before transfection, the FCS supplemented medium was replaced by the same medium supplemented with 10% dextran-charcoal treated FCS. Transfections were carried out using the calcium phosphate precipitation method. The calcium phosphate precipitate was prepared with 0.5 μg pchPRB (Petit-Topin, et al Mol Pharmacol, 2009, 75, 1317), 7 μg reporter vector (GRE2-Luc from A. Biola-Vidamment and M. Pallardy) and 1 μg of pcβgal for an internal transfection control, in 1 mL 140 mM NaCl, 0.75 mM Na2HPO4, 25 mM HEPES, 125 mM CaCl2 pH 7.05 and added to the cells 30 minutes later. After 16 h incubation, the transfected cells were washed with PBS containing 2.5 mM EDTA, trypsinized and pooled. The transfected cells were replated in 24-well plates (100.000 transfected cells/well). […] Cells were lysed in 300 μl PBS 1×, 25 mM glycylglycine, 4 mM EDTA, 15% glycerol, 1% triton X-100, 15 mM MgSO4, pH 7.8 supplemented with 2 mM β-mercaptoethanol. The luciferase activities were quantified by using a Mithras LB940 reader microplates (Berthold).
The APRn “agonist efficacy” was determined from the following formula:
Agonist efficacy=[luciferase activity]1/[luciferase activity]2×100
The APRn “antagonist efficacy” was calculated from the following formula:
Antagonist efficacy=100−[luciferase activity]1/[luciferase activity]2×100
The results are the mean±SEM of three to five independent experiments.
All the synthesized APRn were classified in 4 series depending on the nature of their C3 substituent (R1/R′1 groups). The first one (series 1) includes APRn with no C3 substituent (R1═R′1═H) whereas series 2, 3 and 4 are related to APRn bearing a methoxyl (R1═OMe), a hydroxyl (R1═OH) and a fluorine atom (R1═F), respectively. The agonist/antagonist activities of APRn were determined either in human HEK293T cells transiently expressing hPRB or in human MDA-MB-231 iPRAB cells conditionally expressing hPRB, by using a luciferase reporter gene placed under the control of a glucocorticoid response element (GRE2-Luc). The APRn “agonist efficacy” was determined from the luciferase activity measured in the presence of APRn (1 μM). […] The “agonist efficacy” and “antagonist efficacy” are expressed as defined in the biological protocols section.

[2] = biological target: T2, hGR (Homo sapiens, UniProt P04150); assay: APRn selectivity: transactivation in HEK293T cells transiently expressing hGR; assay type: cell-based; conditions: HEK293T transiently expressing hGR, mean±SEM; for GR Antagonist efficacy (%): dexamethasone 10^−9 M; for Emax: HEK-293T, read-out: GR Agonist efficacy (%)
T2 construct: expressed in transfected cells; host or cells: HEK 293T
T2 sequence (P04150 1-777): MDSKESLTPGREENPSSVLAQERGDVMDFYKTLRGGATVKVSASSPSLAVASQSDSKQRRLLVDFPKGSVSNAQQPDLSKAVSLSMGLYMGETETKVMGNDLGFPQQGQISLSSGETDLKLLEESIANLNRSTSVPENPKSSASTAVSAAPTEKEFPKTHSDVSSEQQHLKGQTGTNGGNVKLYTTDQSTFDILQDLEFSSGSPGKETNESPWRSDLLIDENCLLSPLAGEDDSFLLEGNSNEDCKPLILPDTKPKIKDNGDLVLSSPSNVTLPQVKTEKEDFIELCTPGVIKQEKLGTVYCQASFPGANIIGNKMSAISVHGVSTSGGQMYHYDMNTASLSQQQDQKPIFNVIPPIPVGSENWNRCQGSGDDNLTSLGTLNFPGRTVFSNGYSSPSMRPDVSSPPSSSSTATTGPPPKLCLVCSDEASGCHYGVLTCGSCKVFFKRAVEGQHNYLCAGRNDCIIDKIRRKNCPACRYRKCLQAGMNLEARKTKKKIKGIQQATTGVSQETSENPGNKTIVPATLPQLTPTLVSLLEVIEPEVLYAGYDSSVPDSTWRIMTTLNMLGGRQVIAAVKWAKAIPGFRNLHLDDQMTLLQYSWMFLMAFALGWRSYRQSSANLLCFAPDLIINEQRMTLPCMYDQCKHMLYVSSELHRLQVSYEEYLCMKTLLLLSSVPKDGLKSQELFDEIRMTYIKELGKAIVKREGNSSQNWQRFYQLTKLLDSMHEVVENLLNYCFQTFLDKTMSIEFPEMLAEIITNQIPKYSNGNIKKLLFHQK
Experimental: (§1) Measurement of the APRn Selectivity in HEK 293T.
(§2) The HEK-293T cells were cultured and transfected according to the method described above for the PR transactivation assays. The expression vectors pcDNA-hAR, kindly provided by G. A. Coetzee, pchGR (Hellal-Levy, C et al. FEBS Lett 1999, 464, 9), and pchMR (Fagart, J. et al. EMBO J. 1998, 17, 3317) were used for studying the ability of APRn to activate or inactivate the AR, GR and MR, respectively. For each transfection assays, 2 μg of the expression vector was used together with 7 μg of the GRE2-Luc reporter vector. Dihydrotestosterone (DHT), dexamethasone (Dex) and Aldosterone (Aldo) were selected as AR, GR and MR ligands, respectively. They were used at the concentration of 10^−9 M. The APRn agonist and antagonist efficacy for AR, GR and MR were measured as described above for PR. The results are the mean±SEM of three independent experiments.
(§3) Transfection assays were performed in HEK 293T cells by using expression vectors for the hAR, hGR and hMR and the GRE2-Luc reporter used for the PR transactivation assays.

[3] = biological target: T3, hMR (Homo sapiens, UniProt P08235); assay: APRn selectivity: transactivation in HEK293T cells transiently expressing hMR; assay type: cell-based; conditions: mean±SEM
T3 construct: expressed in transfected cells; host or cells: HEK 293T
T3 sequence (P08235 1-984): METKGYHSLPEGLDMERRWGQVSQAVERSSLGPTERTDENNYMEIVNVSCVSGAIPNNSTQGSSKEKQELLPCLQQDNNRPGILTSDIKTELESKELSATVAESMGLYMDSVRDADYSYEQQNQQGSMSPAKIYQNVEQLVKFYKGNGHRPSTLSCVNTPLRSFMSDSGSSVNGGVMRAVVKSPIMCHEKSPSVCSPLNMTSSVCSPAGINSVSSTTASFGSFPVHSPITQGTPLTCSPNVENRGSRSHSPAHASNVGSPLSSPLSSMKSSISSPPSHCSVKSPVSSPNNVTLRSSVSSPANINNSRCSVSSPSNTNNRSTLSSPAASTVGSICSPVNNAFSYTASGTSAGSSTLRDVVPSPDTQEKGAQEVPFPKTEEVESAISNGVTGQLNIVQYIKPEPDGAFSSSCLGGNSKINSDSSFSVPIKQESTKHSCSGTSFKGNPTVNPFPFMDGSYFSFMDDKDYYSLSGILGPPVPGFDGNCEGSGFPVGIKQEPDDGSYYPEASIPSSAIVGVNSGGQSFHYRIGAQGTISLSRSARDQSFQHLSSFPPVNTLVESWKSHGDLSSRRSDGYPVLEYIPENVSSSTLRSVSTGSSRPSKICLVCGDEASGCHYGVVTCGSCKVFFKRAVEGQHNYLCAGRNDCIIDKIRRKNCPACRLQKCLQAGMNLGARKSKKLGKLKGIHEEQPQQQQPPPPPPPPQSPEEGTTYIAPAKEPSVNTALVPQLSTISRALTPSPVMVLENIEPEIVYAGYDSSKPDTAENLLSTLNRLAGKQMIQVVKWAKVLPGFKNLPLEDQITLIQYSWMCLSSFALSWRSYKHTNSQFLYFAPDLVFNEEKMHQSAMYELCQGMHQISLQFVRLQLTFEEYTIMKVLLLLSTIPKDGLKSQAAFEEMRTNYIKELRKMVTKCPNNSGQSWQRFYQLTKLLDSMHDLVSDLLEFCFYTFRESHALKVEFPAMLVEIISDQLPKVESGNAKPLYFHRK
Experimental: as §1, §2, §3

[4] = series 2-4, stated for both HEK293T and MDA-MB-231 iPRAB cells, FIGS. 3-8

C#CC(C)(O)[C@H]1CC[C@H]2[C@@H]3CC=C4C[C@@H](OC)CC[C@]4(C)[C@H]3CC[C@]12C (stereo partly drawn) [APR-31, 20-Ethynyl-3β-methoxypregn-5-en-20-ol]
melting point: 175 to 176 °C | hPRB agonist/antagonist character (in words) [1, 4]: antagonist character without any agonist activity

C#C[C@]1(O)CCC2C3CC[C@H]4CCCC[C@]4(C)C3CC[C@@]21C (stereo partly drawn) [APR-32, 17α-Ethynyl-5α-androstan-17β-ol]
melting point: 152 to 153 °C | hPRB agonist/antagonist character (in words) ([1]; series 1 (no C3 substituent), HEK293T, FIG. 1): full antagonists

C[C@]12CC[C@H](F)CC1=CC[C@@H]1[C@@H]2CC[C@]2(C)C(=O)CC[C@@H]12 [APR-33, 3β-Fluoroandrost-5-en-17-one]
melting point: 155 to 156 °C | hPRB agonist/antagonist character (in words) [1, 4]: efficient hPRB antagonists

C#C[C@]1(O)CCC2C3CC=C4C[C@@H](F)CC[C@]4(C)C3CC[C@@]21C (stereo partly drawn) [APR-34, 17α-Ethynyl-3β-fluoro-androst-5-en-17β-ol]
melting point: 219 to 220 °C | hPRB agonist/antagonist character (in words) [1, 4]: efficient hPRB antagonists

C[C@]12CC[C@H](F)C[C@@H]1CC[C@@H]1[C@@H]2CC[C@]2(C)C(=O)CC[C@@H]12 [APR-35, 3β-Fluoro-5α-androstan-17-one]
melting point: 126 to 127 °C | hPRB agonist/antagonist character (in words) [1, 4]: efficient hPRB antagonists

C#C[C@]1(O)CCC2C3CC[C@H]4C[C@@H](F)CC[C@]4(C)C3CC[C@@]21C (stereo partly drawn) [APR-36, 17α-Ethynyl-3β-fluoro-5α-androstan-17β-ol]
melting point: 225 to 226 °C | hPRB agonist/antagonist character (in words) [1, 4]: efficient hPRB antagonists

C[C@]12CC[C@H](F)C[C@@H]1CC[C@@H]1[C@@H]2CC[C@]2(C)[C@@H](O)CC[C@@H]12 [APR-40, 3β-Fluoro-5α-androstan-17β-ol]
GR Antagonist efficacy (%) [2]: 5.5 ± 3.9% | Emax [2]: 0.3 ± 0.06% | melting point: 150 to 151 °C | MR Antagonist efficacy (%) ([3]; aldosterone 10^−9 M): 0.4 ± 2.6% | MR Agonist efficacy (%) [3]: 0.57 ± 0.05%

CC(=O)O[C@H]1CCC2C3CC=C4C[C@@H](F)CC[C@@H]4C3CC[C@@]21C (stereo partly drawn) [APR-45, 17β-Acetoxy-3β-fluoro-19-nor-androst-5-ene]
melting point: 104 to 105 °C | hPRB agonist/antagonist character (in words) [1, 4]: efficient hPRB antagonists

C[C@]12CCC3C(CC=C4C[C@@H](F)CC[C@@H]43)C1CC[C@@H]2O (stereo partly drawn) [APR-46, 31-Fluoro-19-nor-androst-5-en-17β-ol]
melting point: 121 to 122 °C | hPRB agonist/antagonist character (in words) [1, 4]: efficient hPRB antagonists

C#C[C@]1(O)CCC2C3CC=C4C[C@@H](F)CC[C@@H]4C3CC[C@@]21C (stereo partly drawn) [APR-50, 17α-Ethynyl-3β-fluoro-19-nor-androst-5-en-17β-ol]
GR Antagonist efficacy (%) [2]: 7.4 ± 1.9% | Emax [2]: 0.25 ± 0.1% | melting point: 149 to 150 °C

Reference: patent US20130203718A1 (priority 2010, published 2013)
